# Results: publication PMC11563196 (Chemical communications (Cambridge, England), 2024)
# How the values were obtained:
# HDAC1 [1] = biological target: T1, HDAC1 (Homo sapiens, UniProt Q13547); experiment: HDAC1 abundance by quantitative fluorescence western blotting in HCT116 cells; format: cell-based; details: for HDAC1 abundance: at 0.1 μM and 1 μM; for Dose response degradation of HDAC1: 24 h, 0.01-10 μM, two independent biological replicates
# T1 construct: endogenous in cells; host or cells: HCT116 (ATCC CCL-247)
# T1 sequence (Q13547 whole entry): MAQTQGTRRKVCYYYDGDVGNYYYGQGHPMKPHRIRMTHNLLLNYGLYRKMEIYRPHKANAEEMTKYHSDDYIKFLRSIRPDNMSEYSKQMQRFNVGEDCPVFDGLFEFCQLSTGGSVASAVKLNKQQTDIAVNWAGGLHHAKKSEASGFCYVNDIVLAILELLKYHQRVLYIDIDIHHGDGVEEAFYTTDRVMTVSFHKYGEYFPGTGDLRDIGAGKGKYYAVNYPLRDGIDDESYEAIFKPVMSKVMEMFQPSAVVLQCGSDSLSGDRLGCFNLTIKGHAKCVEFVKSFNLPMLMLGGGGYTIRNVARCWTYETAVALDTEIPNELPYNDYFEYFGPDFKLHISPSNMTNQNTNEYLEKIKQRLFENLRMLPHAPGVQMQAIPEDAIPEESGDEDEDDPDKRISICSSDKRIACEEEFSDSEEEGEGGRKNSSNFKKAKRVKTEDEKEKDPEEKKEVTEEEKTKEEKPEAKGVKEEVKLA
# Method: (§1) We screened these compounds side-by side with JPS004 a VHL based HDAC1–3 targeting PROTAC and the HDAC1–3 inhibitor CI-994 as control compounds for degradation and inhibition, respectively. […] HCT116 cells were incubated for 24 hours with the compounds and HDAC1, HDAC2 and HDAC3 abundance was quantified by fluorescence western blotting. We also determined the effects on Histone 3 Lysine 56 acetylation (H3K56ac) levels as a secondary assay, for in-cell HDAC inhibition or degradation. […] Similar to our previous observations with VHL recruiting PROTACs, HDAC2 reduction was less affected. It was noteworthy that 7 also incorporated a 12 carbon alkyl linker, which has been an effective linker in our previous studies.[10],[11] Pleasingly, compounds 3–8 also had more modest effects on HDAC3 abundance compared to previously reported VHL recruiting PROTACs.[6]–[13] […] However, while surprising, it is not unprecedented as we and others have observed similar effects on histone acetylation markers with HDAC3 targeting PROTACs.[11],[13],[18]
# (§2) Fig. 3 HDAC1, HDAC2, HDAC3 abundance were determined by quantitative western blotting with antibodies for HDAC1, HDAC2, HDAC3 in HCT116 cells after 24 hours. H3K56 acetylation levels were also determined by quantitative western blotting with an antibody for H3K56ac, and the fold change was compared between compounds at 10 μM, normalising treatment with inhibitor CI 994 = 1.0.
# (§3) Supplementary Information: Biology
# (§4) 1. Cell Culture, Compound Handling and Western Blotting Protocols
# (§5) The HCT116 cell line used in this study was obtained from ATCC (CCL-247). HCT116 human colon carcinoma cells were grown in a Dulbecco’s modified Eagle medium (GIBCO, 41965-039) supplemented with 10% FBS (Sigma) and 1X glutamine/penicillin/streptomycin (GIBCO, 10378−016). Cells were incubated at 37 °C with 5% CO2. Cells were treated with compounds at indicated concentrations (0.01−10 μM). All compounds were made up to a standard solution of 10 mM in DMSO, serially diluted in DMSO, then added to fresh medium (5 mL total) to afford the concentrations stated (0.01−10 μM), with a final DMSO volume of […]
# HCT116 cells were seeded into 6-well plates (4 × 10^5 cells/well) for 24 hours and then treated with DMSO or compounds at the indicated concentrations in fresh medium (5 mL total). After 24 hours treatment time, the cells were harvested and then lysed in lysis buffer (50 mM Tris-HCl, 150 mM NaCl, 0.5% NP-40, 0.5% Triton X-100) supplemented with a protease inhibitor (Sigma, P8340). The suspension was incubated on ice for 30 min, then centrifuged (18,000 rcf, 15 min, 4 °C) and the supernatant collected. Protein concentrations were quantified via Bradford Assay using Protein Assay Dye Reagent Concentrate (BIO-RAD). […] Western blots were run on NuPAGE 4−12% bis−Tris gels with 30 μg of protein or 10 μL of ac id-extracted histone loaded per lane, using NuPAGE LDS sample buffer (4X). PageRuler Plus Prestained Ladder was used for size standards. After gel electrophoresis at 140 V for 90 min, the separated proteins were transferred onto a nitrocellulose membrane at 30 V for 60 min. The membranes were probed with primary antibodies (as indicated below) for 60−90 min. Blots were developed with complimentary IRDye®-conjugated secondary antibodies, and the bands were visualized using an Odyssey infrared imaging system. Image processing and band intensity quantification were performed using Image Studio Lite.
# (§6) 2. Western Blotting Results
# (§7) 2.1. Western Blotting Analysis of Compounds 3-15 from Initial Screen
# (§8) Figure S1. Western blotting of HDAC1/2/3 proteins in HCT116 cells treated with compounds 3-15.
# (§9) (1 picture or pasted object on this page, not shown here)
# HDAC3 [2] = test system: HDAC3; parameters: method as in PMID 35293758; details: previous findings; cited from earlier work
# HDAC3 [3] = biological target: T2, HDAC3 (Homo sapiens, UniProt O15379); experiment: HDAC3 abundance by quantitative fluorescence western blotting in HCT116 cells; format: cell-based; details: for HDAC3 abundance / degradation: initial screen, 24 hours; for Dose response degradation of HDAC3: 24 h, 0.01-10 μM, two independent biological replicates
# T2 construct: endogenous in cells; host or cells: HCT116 (ATCC CCL-247)
# T2 sequence (O15379 whole entry): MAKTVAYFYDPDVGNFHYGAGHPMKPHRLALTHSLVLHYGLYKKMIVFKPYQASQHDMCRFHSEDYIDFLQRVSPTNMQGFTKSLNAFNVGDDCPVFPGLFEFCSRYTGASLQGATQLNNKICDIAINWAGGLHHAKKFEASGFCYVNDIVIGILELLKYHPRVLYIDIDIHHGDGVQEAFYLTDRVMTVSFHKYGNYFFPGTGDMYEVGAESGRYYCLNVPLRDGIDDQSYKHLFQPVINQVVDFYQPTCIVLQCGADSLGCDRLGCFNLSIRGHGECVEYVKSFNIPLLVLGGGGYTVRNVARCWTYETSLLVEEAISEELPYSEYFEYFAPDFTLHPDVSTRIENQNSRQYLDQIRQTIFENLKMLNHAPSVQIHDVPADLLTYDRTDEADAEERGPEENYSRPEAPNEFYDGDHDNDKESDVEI
# T2 sequence (Q9Y618 whole entry partner): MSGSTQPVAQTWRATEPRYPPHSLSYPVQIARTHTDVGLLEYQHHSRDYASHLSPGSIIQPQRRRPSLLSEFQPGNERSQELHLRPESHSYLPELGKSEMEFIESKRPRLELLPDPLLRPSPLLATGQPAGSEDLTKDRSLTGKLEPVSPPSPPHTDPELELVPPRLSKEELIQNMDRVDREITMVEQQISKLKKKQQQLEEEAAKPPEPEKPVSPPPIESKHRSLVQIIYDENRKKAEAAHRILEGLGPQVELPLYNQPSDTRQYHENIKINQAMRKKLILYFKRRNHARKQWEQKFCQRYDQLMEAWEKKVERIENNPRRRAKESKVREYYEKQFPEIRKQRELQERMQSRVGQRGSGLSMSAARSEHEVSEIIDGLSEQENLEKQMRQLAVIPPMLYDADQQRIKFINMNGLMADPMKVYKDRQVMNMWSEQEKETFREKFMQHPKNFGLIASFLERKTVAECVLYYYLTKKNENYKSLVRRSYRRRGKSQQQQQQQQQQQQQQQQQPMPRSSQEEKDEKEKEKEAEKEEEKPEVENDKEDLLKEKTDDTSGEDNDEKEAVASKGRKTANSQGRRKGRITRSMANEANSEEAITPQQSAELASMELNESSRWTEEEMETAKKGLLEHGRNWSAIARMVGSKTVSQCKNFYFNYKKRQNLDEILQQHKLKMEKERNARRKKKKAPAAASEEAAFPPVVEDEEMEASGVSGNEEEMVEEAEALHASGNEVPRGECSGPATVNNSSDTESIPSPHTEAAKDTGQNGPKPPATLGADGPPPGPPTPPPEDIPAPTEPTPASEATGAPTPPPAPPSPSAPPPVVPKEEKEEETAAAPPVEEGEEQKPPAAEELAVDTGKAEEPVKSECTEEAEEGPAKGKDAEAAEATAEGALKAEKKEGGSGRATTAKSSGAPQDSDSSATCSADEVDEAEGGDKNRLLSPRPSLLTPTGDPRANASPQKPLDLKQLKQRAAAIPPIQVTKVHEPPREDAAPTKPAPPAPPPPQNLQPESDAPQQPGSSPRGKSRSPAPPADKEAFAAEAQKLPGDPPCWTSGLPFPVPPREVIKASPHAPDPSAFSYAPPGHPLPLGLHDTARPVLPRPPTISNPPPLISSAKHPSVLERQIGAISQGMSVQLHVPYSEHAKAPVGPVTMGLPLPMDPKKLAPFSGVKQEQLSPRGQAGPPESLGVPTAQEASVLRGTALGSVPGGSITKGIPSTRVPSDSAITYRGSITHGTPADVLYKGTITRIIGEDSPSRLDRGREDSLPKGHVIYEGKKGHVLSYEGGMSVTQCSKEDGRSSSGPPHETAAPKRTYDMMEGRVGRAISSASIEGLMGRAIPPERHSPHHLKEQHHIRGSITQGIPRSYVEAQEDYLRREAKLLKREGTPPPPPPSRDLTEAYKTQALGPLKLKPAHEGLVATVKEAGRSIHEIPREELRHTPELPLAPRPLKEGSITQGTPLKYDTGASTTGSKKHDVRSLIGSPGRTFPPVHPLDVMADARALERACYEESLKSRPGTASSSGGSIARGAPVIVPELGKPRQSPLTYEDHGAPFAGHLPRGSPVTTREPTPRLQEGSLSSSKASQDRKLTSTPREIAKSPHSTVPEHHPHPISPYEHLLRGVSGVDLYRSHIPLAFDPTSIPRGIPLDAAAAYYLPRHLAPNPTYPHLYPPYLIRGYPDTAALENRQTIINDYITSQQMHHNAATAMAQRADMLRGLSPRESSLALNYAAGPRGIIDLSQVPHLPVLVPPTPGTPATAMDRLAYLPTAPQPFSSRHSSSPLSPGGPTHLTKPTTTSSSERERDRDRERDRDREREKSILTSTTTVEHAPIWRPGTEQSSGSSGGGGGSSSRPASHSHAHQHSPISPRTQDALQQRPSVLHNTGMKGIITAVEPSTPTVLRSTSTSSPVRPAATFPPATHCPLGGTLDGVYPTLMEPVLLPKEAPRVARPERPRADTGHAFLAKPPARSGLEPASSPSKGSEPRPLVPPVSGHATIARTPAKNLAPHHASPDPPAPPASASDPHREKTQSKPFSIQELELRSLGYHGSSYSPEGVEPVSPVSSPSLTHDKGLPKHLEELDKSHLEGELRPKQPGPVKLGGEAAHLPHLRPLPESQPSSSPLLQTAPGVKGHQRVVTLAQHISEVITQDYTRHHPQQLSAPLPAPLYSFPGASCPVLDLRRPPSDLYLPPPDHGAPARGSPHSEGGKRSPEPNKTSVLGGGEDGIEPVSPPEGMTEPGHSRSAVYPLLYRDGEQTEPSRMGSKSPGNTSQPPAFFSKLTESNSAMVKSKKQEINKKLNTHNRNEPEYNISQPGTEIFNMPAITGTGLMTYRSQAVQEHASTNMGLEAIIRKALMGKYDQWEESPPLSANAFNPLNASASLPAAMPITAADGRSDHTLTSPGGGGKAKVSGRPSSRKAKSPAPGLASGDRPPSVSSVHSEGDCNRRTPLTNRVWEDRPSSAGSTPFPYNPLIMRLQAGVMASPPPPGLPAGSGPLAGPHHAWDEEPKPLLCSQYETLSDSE
# Method: as §1, §2, §3, §4, §5
# (§10) HCT116 cells were seeded into 6-well plates (4 × 10^5 cells/well) for 24 hours and then treated with DMSO or compounds at the indicated concentrations in fresh medium (5 mL total). After 24 hours treatment time, the cells were harvested and then lysed in lysis buffer (50 mM Tris-HCl, 150 mM NaCl, 0.5% NP-40, 0.5% Triton X-100) supplemented with a protease inhibitor (Sigma, P8340). The suspension was incubated on ice for 30 min, then centrifuged (18,000 rcf, 15 min, 4 °C) and the supernatant collected. Protein concentrations were quantified via Bradford Assay using Protein Assay Dye Reagent Concentrate (BIO-RAD). For histone extraction, an equal volume of 0.4 N H2SO4 was added to the pellets, and the extracts were placed at 4 °C overnight, centrifuged (18,000 rcf, 15 min, 4 °C), then the supernatant (histone extract) collected.
# (§11) Western blots were run on NuPAGE 4−12% bis−Tris gels with 30 μg of protein or 10 μL of ac id-extracted histone loaded per lane, using NuPAGE LDS sample buffer (4X). PageRuler Plus Prestained Ladder was used for size standards. After gel electrophoresis at 140 V for 90 min, the separated proteins were transferred onto a nitrocellulose membrane at 30 V for 60 min. The membranes were probed with primary antibodies (as indicated below) for 60−90 min. Blots were developed with complimentary IRDye®-conjugated secondary antibodies, and the bands were visualized using an Odyssey infrared imaging system. Image processing and band intensity quantification were performed using Image Studio Lite.
# as §6, §7, §8, §9
# HDAC2 [4] = biological target: T3, HDAC2 (Homo sapiens, UniProt Q92769); experiment: HDAC2 abundance by quantitative fluorescence western blotting in HCT116 cells; format: cell-based; details: for HDAC2 abundance / HDAC2 abundance / degradation: initial screen, 24 hours; for HDAC2 abundance: at 0.1 μM and 1 μM; for Dose response degradation of HDAC2: 24 h, 0.01-10 μM, two independent biological replicates
# T3 construct: endogenous in cells; host or cells: HCT116 (ATCC CCL-247)
# T3 sequence (Q92769 whole entry): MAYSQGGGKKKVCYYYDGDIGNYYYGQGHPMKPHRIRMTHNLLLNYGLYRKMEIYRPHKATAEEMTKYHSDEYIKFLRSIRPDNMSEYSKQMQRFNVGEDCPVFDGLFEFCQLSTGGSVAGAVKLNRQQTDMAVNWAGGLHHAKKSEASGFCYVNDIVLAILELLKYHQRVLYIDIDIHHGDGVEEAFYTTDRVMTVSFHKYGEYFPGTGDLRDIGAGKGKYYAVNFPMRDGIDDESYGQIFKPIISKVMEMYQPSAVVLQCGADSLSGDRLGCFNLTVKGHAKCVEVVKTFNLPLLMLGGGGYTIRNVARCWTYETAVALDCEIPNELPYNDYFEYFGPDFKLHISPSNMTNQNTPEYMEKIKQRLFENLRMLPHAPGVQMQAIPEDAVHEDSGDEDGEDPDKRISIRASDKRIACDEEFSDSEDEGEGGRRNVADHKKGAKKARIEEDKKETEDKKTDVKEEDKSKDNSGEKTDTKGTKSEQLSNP
# Method: as §1, §2, §3, §4, §5, §10, §11, §6, §7, §8, §9
# H3K56ac = experiment: Histone 3 Lysine 56 acetylation (H3K56ac) levels by quantitative western blotting in HCT116 cells; format: cell-based, human; details: for H3K56 acetylation levels: rescreen with methylated controls (Fig. 4C); for H3K56ac levels: initial screen, HCT116 cells, 24 hours, fold change compared at 10 μM
# Method: as §1, §2, §3, §4, §5, §10
# Western blots were run on NuPAGE 4−12% bis−Tris gels with 30 μg of protein or 10 μL of ac id-extracted histone loaded per lane, using NuPAGE LDS sample buffer (4X). PageRuler Plus Prestained Ladder was used for size standards. After gel electrophoresis at 140 V for 90 min, the separated proteins were transferred onto a nitrocellulose membrane at 30 V for 60 min. The membranes were probed with primary antibodies (as indicated below) for 60−90 min. […] Image processing and band intensity quantification were performed using Image Studio Lite. […]
# HDAC1 [5] = test system: HDAC1; parameters: method as in PMID 35293758; details: previous findings; cited from earlier work
# HDAC2 [6] = test system: HDAC2; parameters: method as in PMID 35293758; details: previous findings; cited from earlier work
# HDAC1 [7] = test system: HDAC1; parameters: method as in PMID 35008795; details: cited from earlier work
# HDAC3 [8] = test system: HDAC3; parameters: method as in PMID 35008795; details: cited from earlier work
# HDAC2 [9] = test system: HDAC2; parameters: method as in PMID 35008795; details: cited from earlier work
smiles,measurement,setting,value
Nc1ccc(-c2ccc(F)cc2)cc1NC(=O)c1cnc(N2CCN(C(=O)CCCCCCCC(=O)N3CCN(c4cccc5c4C(=O)N(C4CCC(=O)NC4=O)C5=O)CC3)CC2)cn1 (stereo not shown) [Compound 15],HDAC1 abundance / degradation,"HDAC1 [1]; initial screen, 24 hours",less effective at HDAC1 degradation compared to 11 and 12
Cc1ncsc1-c1ccc(CNC(=O)[C@@H]2C[C@@H](O)CN2C(=O)[C@@H](NC(=O)C2(F)CC2)C(C)(C)C)c(OCCCCCCCCCCCC(=O)Nc2ccc(C(=O)Nc3ccccc3N)cc2)c1 [JPS036],HDAC3 degradation selectivity over HDAC1/2,HDAC3 [2],can enhance HDAC3 degradation selectivity over HDAC1/2
Nc1ccc(-c2ccc(F)cc2)cc1NC(=O)c1cnc(N2CCN(C(=O)CCCCCCCCCCCNc3cccc4c3C(=O)N(C3CCC(=O)NC3=O)C4=O)CC2)cn1 (stereo not shown) [Compound 14],HDAC1 abundance / degradation,"HDAC1 [1]; initial screen, 24 hours",less effective at HDAC1 degradation compared to 11 and 12
Nc1ccc(-c2ccc(F)cc2)cc1NC(=O)c1cnc(N2CCN(C(=O)CCCCCNc3cccc4c3C(=O)N(C3CCC(=O)NC3=O)C4=O)CC2)cn1 (stereo not shown) [Compound 11],HDAC3 abundance / degradation,HDAC3 [3],no HDAC3 degradation
same,HDAC1 abundance,"HDAC1 [1]; initial screen, 24 hours",reduced
same,HDAC2 abundance,HDAC2 [4],reduced
Nc1ccccc1NC(=O)c1cnc(N2CCN(C(=O)CCC3CCN(c4cccc5c4C(=O)N(C4CCC(=O)NC4=O)C5=O)CC3)CC2)cn1 (stereo not shown) [Compound 5],Dose response degradation of HDAC3,HDAC3 [3],a hook effect was observed
same,H3K56 acetylation levels,H3K56ac,increasing H3K56ac levels
same,Dose response degradation of HDAC1,HDAC1 [1],dose dependent degradation
same,Dose response degradation of HDAC2,HDAC2 [4],dose dependent degradation
Nc1ccc(-c2ccc(F)cc2)cc1NC(=O)c1cnc(N2CCN(C(=O)CCC3CCN(c4cccc5c4C(=O)N(C4CCC(=O)NC4=O)C5=O)CC3)CC2)cn1 (stereo not shown) [Compound 12],Dose response degradation of HDAC3,HDAC3 [3],HDAC3 degradation was abolished
same,HDAC3 abundance / degradation,HDAC3 [3],no HDAC3 degradation
same,Dose response degradation of HDAC1,HDAC1 [1],very similar dose dependent degradation of HDAC1 and HDAC2 to 5
same,degradation selectivity (HDAC1 over HDAC3),HDAC1 [1]; 24 hours,selective degradation of HDAC1 over HDAC3
same,HDAC1 abundance,"HDAC1 [1]; initial screen, 24 hours",reduced
same,Dose response degradation of HDAC2,HDAC2 [4],very similar dose dependent degradation of HDAC1 and HDAC2 to 5
same,HDAC2 abundance,HDAC2 [4],reduced
Cc1ncsc1-c1ccc(CNC(=O)[C@@H]2C[C@@H](O)CN2C(=O)[C@@H](NC(=O)CCCCCCCCCCC(=O)Nc2ccc(C(=O)Nc3ccccc3N)cc2)C(C)(C)C)cc1 [JPS004],HDAC1 degradation,HDAC1 [5],degrade
same,HDAC2 degradation,HDAC2 [6],degrade
same,HDAC3 degradation,HDAC3 [2],HDAC3 degradation is compromised at concentrations >1 μM due to the hook effect
Nc1ccc(-c2ccc(F)cc2)cc1NC(=O)c1cnc(N2CCNCC2)cn1 [Compound 1],IC50,HDAC1 [7],0.16 µM
same,IC50,HDAC3 [8],6.7 µM
same,IC50,HDAC2 [9],0.34 µM
Nc1ccccc1NC(=O)c1cnc(N2CCN(C(=O)CCCCCCCCCCCNc3cccc4c3C(=O)N(C3CCC(=O)NC3=O)C4=O)CC2)cn1 (stereo not shown) [Compound 7],Dose response degradation of HDAC3,HDAC3 [3],minimal HDAC3 degradation
same,H3K56ac levels,H3K56ac,did not increase H3K56ac levels
same,H3K56 acetylation levels,H3K56ac,did not increase H3K56 acetylation levels
same,Dose response degradation of HDAC1,HDAC1 [1],clear dose dependent HDAC1 degradation
same,degradation selectivity (HDAC1 over HDAC3),HDAC1 [1]; 24 hours,selective degradation of HDAC1 over HDAC3
same,HDAC1 degradation,"HDAC1 [1]; initial screen, 24 hours, at 1 μM",greatest HDAC1 degradation
Nc1ccccc1NC(=O)c1cnc(N2CCN(C(=O)CCCCCCCC(=O)NCCNc3cccc4c3C(=O)N(C3CCC(=O)NC3=O)C4=O)CC2)cn1 (stereo not shown) [Compound 9],HDAC3 abundance / degradation,HDAC3 [3],no effects
same,H3K56ac levels,H3K56ac,increase H3K56ac levels to greater levels than DMSO controls
same,HDAC1 abundance / degradation,"HDAC1 [1]; initial screen, 24 hours",no effects
same,HDAC2 abundance / degradation,HDAC2 [4],no effects
Nc1ccc(-c2ccc(F)cc2)cc1NC(=O)c1cnc(N2CCN(CCCCCCNc3cccc4c3C(=O)N(C3CCC(=O)NC3=O)C4=O)CC2)cn1 (stereo not shown) [Compound 10],HDAC3 abundance / degradation,HDAC3 [3],no effects
same,H3K56ac levels,H3K56ac,increase H3K56ac levels to greater levels than DMSO controls
same,HDAC1 abundance / degradation,"HDAC1 [1]; initial screen, 24 hours",no effects
same,HDAC2 abundance / degradation,HDAC2 [4],no effects
Cc1ncsc1-c1ccc(CNC(=O)[C@@H]2C[C@@H](O)CN2C(=O)[C@@H](NC(=O)COCCCCCCCCCOCC(=O)Nc2ccc(C(=O)Nc3ccccc3N)cc2)C(C)(C)C)cc1 [JPS016],HDAC1 degradation,HDAC1 [5],degrade
same,HDAC2 degradation,HDAC2 [6],degrade
same,HDAC3 degradation,HDAC3 [2],hook effect for HDAC3
